Legend:
[1] = molecular target: T1, stearoyl-CoA desaturase (SCD1) (Mus musculus, UniProt P13516); test: SCD microsomal assay: release of 3H2O from [9,10-3H]stearoyl-CoA in mouse liver microsomes; assay type: biochemical; settings: 15 min incubation, 25° C.
T1 construct: Reactions are started by adding 50 μL of microsomes (1.25 mg/mL); from tissue; host or cells: liver microsomes of male ICR outbred mice on a high-carbohydrate, low-fat diet
T1 sequence (P13516 1-355): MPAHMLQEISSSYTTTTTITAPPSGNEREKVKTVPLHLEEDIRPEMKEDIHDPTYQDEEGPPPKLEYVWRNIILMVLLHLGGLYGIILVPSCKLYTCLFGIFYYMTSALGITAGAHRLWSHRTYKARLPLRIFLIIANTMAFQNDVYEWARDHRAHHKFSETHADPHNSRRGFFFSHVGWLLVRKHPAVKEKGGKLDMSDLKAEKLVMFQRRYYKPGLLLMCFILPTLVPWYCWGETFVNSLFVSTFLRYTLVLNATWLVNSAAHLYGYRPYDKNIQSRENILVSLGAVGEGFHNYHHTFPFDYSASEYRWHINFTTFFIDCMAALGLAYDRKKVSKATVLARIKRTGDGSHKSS
Method: Measuring Stearoyl-CoA Desaturase Inhibition Activity of a Test Compound Using Mouse Liver Microsomes
Livers are immediately rinsed with cold 0.9% NaCl solution, weighed and minced with scissors. All procedures are performed at 4° C. unless specified otherwise. Livers are homogenized in a solution (1/3 w/v) containing 0.25 M sucrose, 62 mM potassium phosphate buffer (pH 7.0), 0.15 M KCl, 15 mM N-acetylcysteine, 5 mM MgCl2, and 0.1 mM EDTA using 4 strokes of a Potter-Elvehjem tissue homogenizer. The homogenate is centrifuged at 10,400×g for 20 min to eliminate mitochondria and cellular debris. The supernatant is filtered through a 3-layer cheesecloth and centrifuged at 105,000×g for 60 min. The microsomal pellet is gently resuspended in the same homogenization solution with a small glass/teflon homogenizer and stored at −70° C. The absence of mitochondrial contamination is enzymatically assessed. The protein concentration is measured using bovine serum albumin as the standard.
Incubation of Mouse Liver Microsomes with Test Compounds:
Desaturase activity is measured as the release of ^3H2O from [9,10-^3H]stearoyl-CoA. Reactions per assay point conditions are as follows: 2 μL 1.5 mM stearoyl-CoA, 0.25 μL 1 mCi/mL ^3H stearoyl CoA, 10 μL 20 mM NADH, 36.75 μL 0.1 M PK buffer (K2HPO4/NaH2PO4, pH 7.2). The test compound or control solution is added in a 1 μL volume. […] The plates are mixed and after 15 min incubation on a heating block (25° C.), the reactions are stopped by the addition of 10 μL 60% PCA. An aliquot of 100 μL is then transferred to a filter plate pretreated with charcoal and the plate centrifuged at 4000 rpm for 1 minute. The flow through containing the ^3H2O released by the SCD1 desaturation reaction is added to scintillation fluid and the radioactivity measured in a Packard TopCount. The data is analysed to identify the IC50 for test compounds and reference compounds.
The activity was defined in terms of % SCD enzyme activity remaining at the desired concentration of the test compound or as the IC50 concentration.

Structure (SMILES) | melting point | IC50 [1]
Cc1nc(-n2ccc(OCC3CC3)cc2=O)sc1C(=O)NCc1ccccc1 [Example 1.1, N-Benzyl-2-(4-(cyclopropylmethoxy)-2-oxopyridin-1(2H)-yl)-4-methylthiazole-5-carboxamide] | 218 to 220 °C | 400 nM
COc1ccn(-c2nc(C)c(C(=O)NCc3ccccc3)s2)c(=O)c1 [Example 1.2, N-Benzyl-2-(4-methoxy-2-oxopyridin-1(2H)-yl)-4-methylthiazole-5-carboxamide] | 205 to 208 °C | 90 nM
Cc1nc(-n2ccc(OCc3ccccc3)cc2=O)[nH]c1C(=O)NCc1ccccc1 [Example 1.7, N-Benzyl-2-(4-(benzyloxy)-2-oxopyridin-1(2H)-yl)-4-methyl-1H-imidazole-5-carboxamide] | 183 to 184 °C | 220 nM
Cc1nc(-n2ccc(O)cc2=O)sc1C(=O)NCc1ncco1 [Example 1.22, 2-(4-Hydroxy-2-oxopyridin-1(2H)-yl)-4-methyl-N-(oxazol-2-ylmethyl)thiazole-5-carboxamide] |  | 430 nM
Cc1nc(-n2ccc(-c3ccc(Cl)cc3)cc2=O)sc1C(=O)NCc1ccccc1 [Example 10, N-Benzyl-2-(4-(4-chlorophenyl)-2-oxopyridin-1(2H)-yl)-4-methylthiazole-5-carboxamide] | 265 to 267 °C | 
CCOC(=O)c1sc(-n2ccc(O)cc2=O)nc1C [Example 14, Ethyl 2-(4-Hydroxy-2-oxopyridin-1(2H)-yl)-4-methylthiazole-5-carboxylate] | 270 to 273 °C | 
CCOC(=O)c1sc(-n2ccc(OCC3CC3)cc2=O)nc1C [Example 15, Ethyl 2-(4-(Cyclopropylmethoxy)-2-oxopyridin-1(2H)-yl)-4-methylthiazole-5-carboxylate] | 180 to 183 °C | 
CCOC(=O)c1sc(-n2ccc(OCc3ccc(C(F)(F)F)o3)cc2=O)nc1C [Example 17] | 196 to 198 °C | 
Cc1nc(-n2ccc(Oc3ccccc3)cc2=O)sc1C(=O)NCc1ccccc1 [Example 18, N-Benzyl-4-methyl-2-(2-oxo-4-phenoxypyridin-1(2H)-yl)thiazole-5-carboxamide] | 67 to 70 °C | 
Cc1nc(-n2ccc(CCc3ccccc3)cc2=O)sc1C(=O)NCc1ccccc1 [Example 19, N-benzyl-4-methyl-2-(2-oxo-4-phenethylpyridine-1(2H)-yl)thiazole-5-carboxamide] | 149 to 150 °C | 
Cc1ccn(-c2nc(C)c(C(=O)NCc3ccccc3)s2)c(=O)c1 [Example 20, N-Benzyl-4-methyl-2-(4-methyl-2-oxopyridin-1(2H)-yl)thiazole-5-carboxamide] | 145 to 147 °C | 
Cc1cc(-n2ccc(CCc3ccccc3)cc2=O)sc1C(=O)NCc1ccccc1 [Example 24, N-benzyl-3-methyl-5-(2-oxo-4-phenethylpyridine-1(2H)-yl)thiophene-2-carboxamide] | 145 to 146 °C | 
Cc1cc(-n2ccc(OCCCO)cc2=O)sc1C(=O)NCc1cccc(F)c1 [Example 25, N-(3-Fluorobenzyl)-5-(4-(3-hydroxypropoxy)-2-oxopyridin-1(2H)-yl)-3-methylthiophene-2-carboxamide] | 135 to 137 °C | 
Cc1nc(-n2ccc(N3CCNC3=O)cc2=O)sc1C(=O)NCc1ccccc1 [Example 26, N-Benzyl-4-methyl-2-(2-oxo-4-(2-oxoimidazolidin-1-yl)pyridin-1(2H)-yl)thiazole-5-carboxamide] | > 300 °C | 
COc1ccn(-c2nc(C)c(C(=O)NCc3ccc[n+]([O-])c3)s2)c(=O)c1 [Example 27, 3-((2-(4-methoxy-2-oxopyridin-1(2H)-yl)-4-methylthiazole-5-carboxamido)methyl)pyridine 1-oxide] | 255 to 257 °C | 

More lines, now with the values ahead:

melting point | IC50 [1] | Structure (SMILES)
203 to 204 °C | 150 nM | Cc1nc(-n2cccc(C(F)(F)F)c2=O)sc1C(=O)NCc1ccccc1 [Example 3.5, N-Benzyl-4-methyl-2-(2-oxo-3-(trifluoromethyl)pyridin-1(2H)-yl)thiazole-5-carboxamide]
170 to 172 °C | 230 nM | Cc1nc(-n2ccccc2=O)sc1C(=O)NCc1ccc(F)cc1 [Example 3.11, N-(4-Fluorobenzyl)-4-methyl-2-(2-oxopyridin-1(2H)-yl)thiazole-5-carboxamide]
191 to 192 °C | 5700 nM | Cc1cc(-n2ccc(OCc3ccccc3)cc2=O)oc1C(=O)NCc1ccccc1 [Example 3.19, N-Benzyl-5-(4-(benzyloxy)-2-oxopyridin-1(2H)-yl)-3-methylfuran-2-carboxamide]
218 to 221 °C | 30 nM | Cc1nc(-n2ccc3c(O)cccc3c2=O)sc1C(=O)NCc1ccccc1 [Example 7.1, N-Benzyl-2-(5-hydroxy-1-oxoisoquinolin-2(1H)-yl)-4-methylthiazole-5-carboxamide]
110 °C (dec.) | 800 nM | Cc1cc(-n2ccc(O)cc2=O)sc1C(=O)NCc1cccnc1 [Example 7.6, 5-(4-Hydroxy-2-oxopyridin-1(2H)-yl)-3-methyl-N-(pyridin-3-ylmethyl)thiophene-2-carboxamide]
181 to 183 °C |  | Cc1nc(-n2ccc(OCC3CCCO3)cc2=O)sc1C(=O)NCc1ccccc1 (centres unmarked) [Example 9.12, N-Benzyl-4-methyl-2-(2-oxo-4-((tetrahydrofuran-2-yl)methoxy)pyridin-1(2H)-yl)thiazole-5-carboxamide]
135 to 136 °C |  | CCOC(=O)c1[nH]c(-n2ccc(OCc3ccccc3)cc2=O)nc1C [Example 12.2, Ethyl 2-(4-(benzyloxy)-2-oxopyridin-1(2H)-yl)-4-methyl-1H-imidazole-5-carboxylate]
261 to 263 °C |  | Cc1nc(-n2ccc(OCc3ccc(C(F)(F)F)o3)cc2=O)sc1C(=O)O [Example 13.6]
> 300 °C |  | Cc1nc(-n2ccc(OCc3ccc(F)cc3)cc2=O)sc1C(=O)O [Example 13.7, 2-(4-(4-Fluorobenzyloxy)-2-oxopyridin-1(2H)-yl)-4-methylthiazole-5-carboxylic acid]
163 to 165 °C |  | CCOC(=O)c1sc(-n2ccc(OC)cc2=O)nc1C [Example 15.1, Ethyl 2-(4-Methoxy-2-oxopyridin-1(2H)-yl)-4-methylthiazole-5-carboxylate]
188 to 190 °C |  | CCOC(=O)c1sc(-n2ccc(OCCC3CC3)cc2=O)nc1C [Example 15.2, Ethyl 2-(4-(2-Cyclopropylethoxy)-2-oxopyridin-1(2H)-yl)-4-methylthiazole-5-carboxylate]
214 to 217 °C |  | CCOC(=O)c1sc(-n2ccc(OCc3ccc(F)cc3)cc2=O)nc1C [Example 17.1, Ethyl 2-(4-(4-Fluorobenzyloxy)-2-oxopyridin-1(2H)-yl)-4-methylthiazole-5-carboxylate]
149 to 151 °C |  | Cc1nc(-n2ccc(C3CC3)cc2=O)sc1C(=O)NCc1ccccc1 [Example 19.1, N-Benzyl-2-(4-cyclopropyl-2-oxopyridin-1(2H)-yl)-4-methylthiazole-5-carboxamide]
 | 180 nM | Cc1nc(-n2ccc(OCc3c(C)noc3C)cc2=O)sc1C(=O)NCc1ccccc1 [Example 21.13, N-benzyl-2-(4-((3,5-dimethylisoxazol-4-yl)methoxy)-2-oxopyridin-1(2H)-yl)-4-methylthiazole-5-carboxamide]
 | 50 nM | Cc1nc(-n2ccc(OCc3ccccc3)cc2=O)sc1C(=O)NCc1ccc(Cl)nc1 [Example 22.19, 2-(4-(Benzyloxy)-2-oxopyridin-1(2H)-yl)-N-((6-chloropyridin-3-yl)methyl)-4-methylthiazole-5-carboxamide]

From patent US8501746B2, “Organic compounds” (Xenon Pharmaceuticals Inc., priority 2006, dated 2013)
